Patent US9512075B2 (OKAYAMA UNIVERSITY, priority 2012, dated 2016)
≈ marks a conversion by molar mass, not a printed value. Where two headings read alike, the source gives them in different places.

Tests used:
Format in all cases: cell-based
[1] = system: Staphylococcus aureus Smith strain; assay: MIC for Staphylococcus aureus Smith strain; conditions: read-out: MIC Straphyrococcus aureus Smith
[2] = system: Staphylococcus aureus 209P strain; assay: MIC for Staphylococcus aureus 209P strain; conditions: Staphylococcus aureus, read-out: MIC Straphyrococcus aureus 209P
[3] = system: Staphylococcus aureus MRSA No. 17 (methicillin-resistant Staphylococcus aureus: MRSA); assay: MIC for Staphylococcus aureus MRSA No. 17; conditions: read-out: MIC Straphyrococcus aureus MRSA No. 17 (MRSA)
[4] = system: Enterococcus faecalis 5038 strain; assay: MIC for Enterococcus faecalis 5038 strain; conditions: read-out: MIC Enterococcus faecalis 5038
[5] = system: Enterococcus faecalis NCTC12201 strain (vancomycin-resistant Enterococcus: VRE); assay: MIC for Enterococcus faecalis NCTC12201 strain (VRE); conditions: read-out: MIC Enterococcus faecalis NCTC 12201 (VRE)
[6] = system: Clostridium difficile JCM1296 strain; assay: microbe, parasite or virus in culture; conditions: Clostridioides difficile, JCM1296, read-out: MIC Clostridium difficile JCM1296
[7] = system: Clostridium perfringens PB6K strain; assay: microbe, parasite or virus in culture; conditions: Clostridium perfringens, PB6KSTRAIN, read-out: MIC Clostridium perfringens PB6K, PB6K strain; CD medium, 37° C. overnight, 10% CO2-containing anaerobic conditions
[8] = system: Escherichia coli K-12 strain; assay: MIC for Escherichia coli K-12 strain; conditions: Escherichia coli, K12STRAIN, read-out: MIC Escherichia coli K12
[9] = system: Escherichia coli BE1121 strain; assay: MIC for Escherichia coli BE1121 strain; conditions: Escherichia coli, BE1121STRAIN, read-out: MIC Escherichia coli BE1121
[10] = Smith strain, regular bouillon medium, 37° C. overnight, turbidity
[11] = 209P strain, regular bouillon medium, 37° C. overnight, turbidity
[12] = MRSA No. 17, regular bouillon medium, 37° C. overnight, turbidity
[13] = 5038 strain, Heart Infusion Broth medium, 37° C. overnight, turbidity
[14] = NCTC12201 strain (VRE), Heart Infusion Broth medium, 37° C. overnight, turbidity
[15] = K-12 strain, regular bouillon medium, 37° C. overnight, turbidity
[16] = BE1121 strain, regular bouillon medium, 37° C. overnight, turbidity

Row | Compound | MIC [1, 10] [µg/mL] | MIC [2, 11] [µg/mL] | MIC [3, 12] [µg/mL] | MIC [4, 13] [µg/mL] | MIC [5, 14] [µg/mL] | MIC [6] [µg/mL] | MIC [7] [µg/mL] | MIC [8, 15] [µg/mL] | MIC [9, 16] [µg/mL] | MIC [1] [µg/mL] | MIC ([2]; 209P) [µg/mL] | MIC ([3]; MRSA) [µg/mL] | MIC ([4]; 5038STRAIN) [µg/mL] | MIC [5] [µg/mL] | MIC [8] [µg/mL] | MIC [9] [µg/mL]
1 | CCCCCCCCCCSCC(O)=C1C(=O)N(C(C)=O)c2ccc(Br)cc21 [A030, N-acetyl-5-bromo-3-decylthioacetyl-2-oxyindole] | 0.25 (≈ 0.534 µM) | 2 (≈ 4.27 µM) | 2 (≈ 4.27 µM) | 0.25 (≈ 0.534 µM) | 0.25 (≈ 0.534 µM) | < 0.125 | < 0.125 | 256 (≈ 546 µM) | 8 (≈ 17.1 µM) | – | – | – | – | – | – | –
2 | CCCCCCCCNC(=O)N1C(=O)C(=C(O)c2ccccc2)c2ccccc21 [A031, N-(octylaminocarbonyl)-3-benzoyl-2-oxyindole] | – | – | – | – | – | 0.25 (≈ 0.637 µM) | 0.25 (≈ 0.637 µM) | – | – | 0.5 (≈ 1.27 µM) | 0.25 (≈ 0.637 µM) | 256 (≈ 652 µM) | 25 (≈ 63.7 µM) | 0.25 (≈ 0.637 µM) | 256 (≈ 652 µM) | 256 (≈ 652 µM)
3 | CCCCCCCCCC(O)=C1C(=O)N(C(=O)Nc2ccccc2)c2ccc(Br)cc21 [A033, N-(phenylaminocarbonyl)-5-bromo-3-decanoyl-2-oxyindole] | 256 (≈ 527 µM) | 256 (≈ 527 µM) | 256 (≈ 527 µM) | 256 (≈ 527 µM) | 256 (≈ 527 µM) | 0.5 (≈ 1.03 µM) | 0.5 (≈ 1.03 µM) | 256 (≈ 527 µM) | 128 (≈ 264 µM) | – | – | – | – | – | – | –
4 | CCCCC1CCC(C(O)=C2C(=O)N(C(=O)Nc3ccccc3)c3ccc(Br)cc32)CC1 (stereo not drawn) [A034, N-(phenylaminocarbonyl)-5-bromo-3-(4-butylcyclohexylcarbonyl)-2-oxyindole] | 1 (≈ 2.01 µM) | 32 (≈ 64.3 µM) | 64 (≈ 129 µM) | 1 (≈ 2.01 µM) | 1 (≈ 2.01 µM) | 0.5 (≈ 1.01 µM) | 0.5 (≈ 1.01 µM) | 128 (≈ 257 µM) | 128 (≈ 257 µM) | – | – | – | – | – | – | –
5 | CCCCCCCCCCOCC(O)=C1C(=O)N(C(=O)Nc2ccccc2)c2ccc(Br)cc21 [A035, N-(phenylaminocarbonyl)-5-bromo-3-decyloxyacetyl-2-oxyindole] | 8 (≈ 15.1 µM) | 64 (≈ 121 µM) | 64 (≈ 121 µM) | 4 (≈ 7.55 µM) | 2 (≈ 3.78 µM) | 0.5 (≈ 0.944 µM) | 0.25 (≈ 0.472 µM) | 128 (≈ 242 µM) | 128 (≈ 242 µM) | – | – | – | – | – | – | –
6 | CCCCCCCCCCOCC(O)=C1C(=O)N(C(=O)Nc2ccccc2)c2ccc(F)cc21 [A036] | 0.25 (≈ 0.534 µM) | 128 (≈ 273 µM) | 128 (≈ 273 µM) | 0.5 (≈ 1.07 µM) | 0.5 (≈ 1.07 µM) | 0.25 (≈ 0.534 µM) | 0.25 (≈ 0.534 µM) | 128 (≈ 273 µM) | 128 (≈ 273 µM) | – | – | – | – | – | – | –
7 | CCCCCCCCCCSCC(O)=C1C(=O)N(C(=O)Nc2ccccc2)c2ccc(F)cc21 [A037, N-(phenylaminocarbonyl)-3-decylthioacetyl-5-fluoro-2-oxyindole] | 0.25 (≈ 0.516 µM) | 2 (≈ 4.13 µM) | 2 (≈ 4.13 µM) | 0.5 (≈ 1.03 µM) | 0.5 (≈ 1.03 µM) | 0.5 (≈ 1.03 µM) | 1 (≈ 2.06 µM) | 256 (≈ 528 µM) | 256 (≈ 528 µM) | – | – | – | – | – | – | –
8 | CCCCCCCCCCOCC(O)=C1C(=O)N(C(=O)Nc2ccc(Br)cc2)c2ccccc21 [A038, N-(4-bromophenylaminocarbonyl)-3-decyloxyacetyl-2-oxyindole] | 64 (≈ 121 µM) | 64 (≈ 121 µM) | 64 (≈ 121 µM) | 8 (≈ 15.1 µM) | 16 (≈ 30.2 µM) | 32 (≈ 60.4 µM) | 16 (≈ 30.2 µM) | 128 (≈ 242 µM) | 128 (≈ 242 µM) | – | – | – | – | – | – | –
9 | CCCCCCCCCC(O)=C1C(=O)N(C(=O)Nc2ccc(Br)cc2)c2ccccc21 [A039, N-(4-bromophenylaminocarbonyl)-3-decanoyl-2-oxyindole] | 256 (≈ 527 µM) | 256 (≈ 527 µM) | 256 (≈ 527 µM) | 256 (≈ 527 µM) | 256 (≈ 527 µM) | 64 (≈ 132 µM) | 64 (≈ 132 µM) | 256 (≈ 527 µM) | 256 (≈ 527 µM) | – | – | – | – | – | – | –
10 | CCCCC1CCC(C(O)=C2C(=O)N(C(=O)Nc3ccc(Br)cc3)c3ccccc32)CC1 (stereo not drawn) [A040, N-(4-bromophenylaminocarbonyl)-3-(4-butylcyclohexylcarbonyl)-2-oxyindole] | 2 (≈ 4.02 µM) | 128 (≈ 257 µM) | 128 (≈ 257 µM) | 1 (≈ 2.01 µM) | 1 (≈ 2.01 µM) | 8 (≈ 16.1 µM) | 4 (≈ 8.04 µM) | 256 (≈ 515 µM) | 256 (≈ 515 µM) | – | – | – | – | – | – | –
11 | CCCCCCCCCCOCC(O)=C1C(=O)N(C(=O)Nc2ccc(F)cc2)c2ccccc21 [A041, N-(4-fluorophenylaminocarbonyl)-3-decyloxyacetyl-2-oxyindole] | 4 (≈ 8.54 µM) | 256 (≈ 546 µM) | 256 (≈ 546 µM) | 2 (≈ 4.27 µM) | 4 (≈ 8.54 µM) | 0.5 (≈ 1.07 µM) | 8 (≈ 17.1 µM) | 128 (≈ 273 µM) | 256 (≈ 546 µM) | – | – | – | – | – | – | –
12 | CCCCCCCCCC(O)=C1C(=O)N(C(=O)Nc2ccc(F)cc2)c2ccccc21 [A042, N-(4-fluorophenylaminocarbonyl)-3-decanoyl-2-oxyindole] | 0.5 (≈ 1.18 µM) | 256 (≈ 603 µM) | 256 (≈ 603 µM) | 2 (≈ 4.71 µM) | 4 (≈ 9.42 µM) | < 0.125 | 1 (≈ 2.36 µM) | 256 (≈ 603 µM) | 256 (≈ 603 µM) | – | – | – | – | – | – | –
13 | CCCCC1CCC(C(O)=C2C(=O)N(C(=O)Nc3ccc(F)cc3)c3ccccc32)CC1 (stereo not drawn) [A043, N-(4-fluorophenylaminocarbonyl)-3-(4-butylcyclohexylcarbonyl)-2-oxyindole] | 1 (≈ 2.29 µM) | 256 (≈ 586 µM) | 128 (≈ 293 µM) | 1 (≈ 2.29 µM) | 1 (≈ 2.29 µM) | 1 (≈ 2.29 µM) | 4 (≈ 9.16 µM) | 256 (≈ 586 µM) | 256 (≈ 586 µM) | – | – | – | – | – | – | –
14 | CCCCCCCCCC(O)=C1C(=O)N(C(=O)Nc2ccccc2)c2ccc(F)cc21 [A044, N-(phenylaminocarbonyl)-3-decanoyl-5-fluoro-2-oxyindole] | 0.25 (≈ 0.589 µM) | 256 (≈ 603 µM) | 256 (≈ 603 µM) | 1 (≈ 2.36 µM) | 0.5 (≈ 1.18 µM) | < 0.125 | < 0.125 | 256 (≈ 603 µM) | 256 (≈ 603 µM) | – | – | – | – | – | – | –
15 | CCCCCCCCCCOCC(O)=C1C(=O)N(C(=O)Nc2ccc(OC)cc2)c2ccccc21 [A045, N-(4-methoxyphenylaminocarbonyl)-3-decyloxyacetyl-2-oxyindole] | 128 (≈ 266 µM) | 256 (≈ 533 µM) | 256 (≈ 533 µM) | 4 (≈ 8.32 µM) | 64 (≈ 133 µM) | 0.5 (≈ 1.04 µM) | 8 (≈ 16.6 µM) | 128 (≈ 266 µM) | 128 (≈ 266 µM) | – | – | – | – | – | – | –
16 | CCCCCCCCCC(O)=C1C(=O)N(C(=O)Nc2ccc(OC)cc2)c2ccccc21 [A046, N-(4-methoxyphenylaminocarbonyl)-3-decanoyl-2-oxyindole] | 256 (≈ 586 µM) | 256 (≈ 586 µM) | 256 (≈ 586 µM) | 256 (≈ 586 µM) | 256 (≈ 586 µM) | 1 (≈ 2.29 µM) | 8 (≈ 18.3 µM) | 256 (≈ 586 µM) | 256 (≈ 586 µM) | – | – | – | – | – | – | –
